In US12383542B2, “Methods of treating ovarian cancer” (TESARO, INC., priority 2016, dated 2025):
Values joined by “and” are separate entries in the source; they are usually repeats but may differ in a detail not shown here. Equal values may be shown once. Where a name gives a salt, the structure may show the parent alone. Read-outs that look alike come from different tables or passages of the source.

How the values were obtained:
ovarian cancer [1] = conditions: relatively small sample size; cited from earlier work
[2] = test system: advanced BRCA-mutant ovarian cancer; conditions: cited from earlier work
ovarian cancer [3] = conditions: cited from earlier work
[4] = test system: platinum-sensitive epithelial ovarian cancer; conditions: cited from earlier work
ovarian cancer [5] = conditions: cited from earlier work; remark: listed apart in the source
PARP activity [6] = conditions: mice dosed with niraparib
[7] = in vivo
Procedure: Patients with ovarian cancer regardless of platinum sensitivity and burden of disease were randomized to either Group A or Group B with 6 patients assigned to each group. […] In Group B, patients fasted for at least 10 hours before consuming a high fat meal.

[8] = test system: Ewing's sarcoma, ALL, NSCLC, SCLC cell lines and tumor cell lines carrying homozygous inactivation of the ATM gene
[9] = From the text: Patients continued to receive their assigned treatment until disease progression, unacceptable toxicity, death, withdrawal of consent, and/or lost to follow-up. Dose interruption and/or reduction were available at any time for any grade toxicity considered intolerable by the patient.
Dose interruption and/or reduction could be implemented at any time for any grade toxicity considered intolerable by the patient. Treatment was required to be interrupted for any non-hematologic AE that was Grade 3 or 4, per NCI CTCAE v.4.02 if the Investigator considered the event to be related to administration of study drug. If toxicity was appropriately resolved to baseline or Grade 1 or less within 28 days, the patient was allowed to restart treatment with study drug, but with a dose level reduction according to Table 4, if prophylaxis was not considered feasible.

PARP activity [10] = conditions: tumor homogenates
PARP activity [11] = assay: cells
[12] = test system: MDA-MB-436, CAPAN-1, GRANTA-519, OVCAR3, HT29, DLD-1, patient derived Ewing's sarcoma and TNBC xenograft models; conditions: xenograft models in mice
[13] = test system: cancer cell lines that have been silenced for BRCA-1 or BRCA-2, or carry BRCA-1 or BRCA-2 mutations
[14] = test system: platinum-sensitive recurrent ovarian cancer; conditions: for patients with PFS events at the time of unblinding: patients entering with PR; for Time to second subsequent treatment, HR: <40% of events
[15] = all patients treated with niraparib
[16] = HRDneg group, listed as Niraparib

C[C@]1(c2nc3c(C(N)=O)cccc3[nH]2)CCCN1 [veliparib, 2-[(R)-2-methylpyrrolidin-2-yl]-1H-benzimidazole-4-carboxamide]
effect on the progression of ovarian cancer (ovarian cancer [1]): unable to show any effect

CNCc1ccc(-c2[nH]c3cc(F)cc4c3c2CCNC4=O)cc1 [rucaparib, 8-fluoro-2-{4-[(methylamino)methyl]phenyl}-1,3,4,5-tetrahydro-6H-azepino[5,4,3-cd]indol-6-one ((1S,4R)-7,7-dimethyl-2-oxobicyclo[2.2.1]hept-1-yl)methanesulfonic acid salt]
Response assessment by independent radiology review ([2]; 600 mg orally twice daily, 106 patients): 42%
median DOR ([2]; independent radiology review): 6.7 months
Investigator-assessed ORR ([2]; platinum-refractory patients): 0%
Investigator-assessed ORR ([2]; platinum-resistant patients): 25%
Investigator-assessed ORR ([2]; platinum-sensitive patients): 66%

O=C(c1cc(Cc2n[nH]c(=O)c3ccccc23)ccc1F)N1CCN(C(=O)C2CC2)CC1 [olaparib, 4-[(3-{[4-(cyclopropylcarbonyl)piperazin-1-yl]carbonyl}-4-fluorophenyl)methyl]phthalazin-1(2H)-one]
responses (ovarian cancer [3]; 17 patients with BRCA1 or BRCA2 mutations): 7
responses (ovarian cancer [3]; 46 patients without these mutations): 11
serious adverse events versus control group ([4]; human, in vivo): more common
change in overall survival ([4]; women with germline BRCA mutations, versus placebo or no treatment): no significant change
Median PFS (ovarian cancer [5]; patients with BRCA mutations): 11.2 months
planned analysis of the subset of patients with BRCA mutations (ovarian cancer [5]; phase II maintenance study): a clear advantage

NC(=O)c1cccc2cn(-c3ccc([C@@H]4CCCNC4)cc3)nc12 [niraparib, (3S)-3-[4-{7-(aminocarbonyl)-2H-indazol-2-yl}phenyl]piperidine]
PARP activity in PBMCs (PARP activity [6]): Inhibition of PARP activity
bioavailability in fed versus fasted state [7]: substantially similar
cytotoxicity [8]: selectively cytotoxic
rate of MDS/AML ([9]; ITT population): 1.3%
treatment-emergent grade 3/4 anemia [9, 15]: 24.8%
treatment-emergent grade 3/4 neutropenia [9, 15]: 11.2%
treatment-emergent grade 3/4 thrombocytopenia [9, 15]: 28.3%
grade 5 events ([9]; human, in vivo, 300 mg QD): No grade 5 events occurred
TEAEs leading to dose reduction ([9]; in vivo): 67%
TEAEs leading to treatment discontinuation ([9]; in vivo): 15%
TEAEs leading to treatment interruption ([9]; in vivo): 69%
grade 3 or 4 bleeding event ([9]; in vivo): No patient
incidence of CTCAE Grade ≥3 TEAEs ([9]; in vivo): 74%
incidence of SAEs ([9]; in vivo): 30%
incidence of treatment-related TEAEs ([9]; in vivo): 98%
patients remaining on niraparib for the duration of the study ([9]; in vivo): ~85%
patients with at least 1 TEAE ([9]; in vivo): all patients
mean platelet count over time ([9]; overall niraparib treated population, after decrease by day 15): generally returned to near baseline by Cycle 4
incidence of MDS/AML ([9]; patients who received niraparib (5 of 367)): 1.4% and 1%
target engagement (PARP activity) (PARP activity [10]): Target engagement has also been demonstrated
IC50 (PARP activity [11]; read-out: IC50 of PARP activity in cells): ~4 nM
IC90 (PARP activity [11]; read-out: inhibitory concentration at 90% of control (IC90)): ~50 nM
activity on normal human cells (normal human cells): weak activity
antitumor activity [12]: strong antitumor activity
consequence on cell cycle ([13]; BRCA-defective cells): cell cycle arrest in G2/M followed by apoptosis
anti-proliferative activity ([13]; compared to wild type counterparts): selective anti-proliferative activity
% of Patients without Progression or Death at 6 Months ([14]; HRDneg group): 54%
% of Patients without Progression or Death at 12 Months ([14]; HRDneg group): 27%
% of Patients without Progression or Death at 18 Months ([14]; HRDneg group): 19%
% of Patients without Progression or Death at 12 Months [14, 16]: 27%
% of Patients without Progression or Death at 18 Months [14, 16]: 19%
% of Patients without Progression or Death at 6 Months ([14]; HRDpos group): 69%
% of Patients without Progression or Death at 12 Months ([14]; HRDpos group): 51%
% of Patients without Progression or Death at 18 Months ([14]; HRDpos group): 37%
chemotherapy-free interval ([14]; both cohorts, versus placebo): significantly improved
time to first subsequent treatment ([14]; both cohorts, versus placebo): significantly improved
Overall Survival, HR ([14]; combined cohorts, data immature, 80% of patients censored): HR 0.73 (95% CI: 0.480, 1.125)
Median PFS ([14]; combined study population (gBRCAmut and non-gBRCAmut), exploratory pooled analysis): 11.3 months
PFS by niraparib dose of longest duration (100, 200, 300 mg) ([14]; gBRCAmut and non-gBRCAmut cohorts): consistent with the overall population
% of Patients without Progression or Death at 6 Months ([14]; gBRCAmut cohort): 80%
% of Patients without Progression or Death at 12 Months ([14]; gBRCAmut cohort): 62%
% of Patients without Progression or Death at 18 Months ([14]; gBRCAmut cohort): 50%
Median PFS ([14]; gBRCAmut cohort): 21.0 Months
progression-free survival 2 ([14]; gBRCAmut cohort): 25.8 months
Median PFS ([14]; gBRCAmut cohort, listed as Niraparib): 21.0 Months and 21.0 (12.9, NE) Months
patients with PFS events at the time of unblinding ([14]; gBRCAmut): 45%
Time to second subsequent treatment, HR ([14]; gBRCAmut, data immature): HR 0.48 (95% CI: 0.272, 0.851)
impact of treatment on OS ([14]; in vivo): no detrimental impact
% of Patients without Progression or Death at 6 Months ([14]; non-gBRCAmut cohort): 61%
% of Patients without Progression or Death at 12 Months ([14]; non-gBRCAmut cohort): 41%
% of Patients without Progression or Death at 18 Months ([14]; non-gBRCAmut cohort): 30%
Median PFS ([14]; non-gBRCAmut, HRD negative): 6.9 Months
Median PFS ([14]; non-gBRCAmut, HRD negative, listed as Niraparib): 6.9 Months and 6.9 (5.6, 9.6) Months
Median PFS ([14]; non-gBRCAmut, HRD-positive): 12.9 Months
Median PFS ([14]; non-gBRCAmut, HRD-positive, listed as Niraparib): 12.9 Months and 12.9 (8.1, 15.9) Months
Median PFS ([14]; non-gBRCAmut, HRDpos/BRCAwt): 9.3 Months
Median PFS ([14]; non-gBRCAmut, HRDpos/somatic BRCAmut): 20.9 Months
patients with PFS events at the time of unblinding ([14]; non-gBRCAmut): 56%
Time to second subsequent treatment, HR ([14]; non-gBRCAmut, data immature): HR 0.74 (95% CI: 0.519, 1.066)
Median PFS ([14]; overall non-gBRCAmut cohort): 9.3 Months
median PFS 2 ([14]; overall non-gBRCAmut cohort): 18.64 months
Median PFS ([14]; overall non-gBRCAmut cohort, listed as Niraparib): 9.3 Months and 9.3 (7.2, 11.2) Months
PFS2-PFS1 (efficacy of next-line treatment) ([14]; pooled cohorts, versus placebo): similar
